Assay results from patent US4994468A, “Imidazoquinolone derivatives” (Kyowa Hakko Kogyo Co., Ltd., priority 1989, dated 1991).

Tests used:
[1] = test system: trachea strips of passively sensitized guinea pigs, antigen (EWA) induced contraction; assay: Effects on passive Schultz-Dale reaction (broncho-dilatory effects); format: cell-based, guinea pig (Hartley male); settings: Cavia porcellus; concentration of 50% relaxation; sensitized guinea pig trachea, antigen EWA 1 μg/ml, cumulative addition, 37° C.
Experimental: (a) Effects on passive Schultz-Dale reaction (broncho-dilatory effects). Guinea pigs were passively sensitized as follows. Hartley male guinea pigs weighing 350 to 500 g were injected intraperitoneally with rabbit anti-egg albumin (EWA) serum prepared by the method of Eda et al. [Folia pharmacol., Japon 66, 237, (1970)]. After 24 hours, the guinea pigs were stunned and exsanguinated, and then trachea was excised. The zig-zag strips of the […] prepared by the method of Emmerson and Mackay [J. Pharm. Pharmacol., 31, 798, (1979)]. The strips were suspended in Krebs-Henseleit solution at 37° C. under aeration of a mixed gas of 95% oxygen and 5% carbon dioxide, and incubated for one hour. Antigen (EWA) was then introduced in the solution (final concentration; 1 μg/ml), and the contraction was measured by isotonictrasducer (TD-112s, made by Nihon Kohden K.K., Japan) and recorded on a recorder (Type 3066, made by Yokogawa-Hokushin Denki, K.K. Japan). After the contraction curves reached plateau, the compounds were successively added in order to get cumulative concentration-relaxation curves.

[2] = test system: passive cutaneous anaphylaxis (PCA); assay: Antiallergic effects: 48 hour-homologous passive cutaneous anaphylaxis (PCA) test in rats; format: in vivo, rat (Wistar male); settings: Rattus norvegicus; minimum effective dosage: suppression rate 50% or higher in at least one of three rats; oral, 1 hour before PCA challenge; read-out: Anti-allergic effect (MED)
Experimental: Antiallergic effects of compounds were assessed by passive cutaneous anaphylaxis (PCA) test in rats. Wistar male rats weighing 180 to 220 g were used for collection of antiserum and Wistar male rats weighing 120 to 140 g for PCA test.
(i) Preparation of anti EWA serum in rat
Anti-EWA rat serum was prepared by the method of Stotland and Share [Can. J. Physiol. Pharmacol., 52, 1114, (1974)] as follows. That is, 1 mg of EWA, 20 mg of aluminium hydroxide gel and 0.5 ml of mixed vaccine of pertussis, diphtheria and tetanus were mixed, and the mixture was subcutaneously injected in 4 portions into the foot part of the rats. After 14 days, the blood of sensitized rats was collected from carotid artery. The serum was separated by centrifugation from collected blood, and kept at -80° C. Titer of the 48 hour homologous PCA tests of the serum was 1:32.
(ii) Effects on 48 hour-homologous PCA tests in rats
Groups each consisting of three male rats were used, and 0.05 ml of anti-EWA serum diluted to 8 times with a physiological saline, was sensitized passively by giving intradermal injection at two depilated points on the dorsum. After 47 hours, the test compound or its solvent (saline or CMC solution) was orally administrated, and 1 hour thereafter, PCA reaction was induced by intravenous administration of 1% Evan's blue-saline (0.5 ml/100 g) containing 2 mg of […]. After 30 minutes, animals were sacrificed by bleeding and dorsal skin was stripped to determin the extravasated dye at blue-dyed reaction site, by the method of Katayama et al. [Microbiol. Immunol., 22, 89 (1978)]. The blue-dyed spots were scissored out and placed in a test tube containing 1 ml of 1N sodium hydroxide and incubated at 37° C. for 24 hours. 9 ml of a mixture of 0.6N phosphate:acetone (5:13) was added thereto. After shaking, the mixture was centrifuged at 2500 rpm for 10 minutes. A supernatant was separated, and extravasated dye in the supernatant was quantified by measuring absorbance of the supernatant at 620 nm. Prepared calibration curve was used for the quantification. An average of measurements at the two positions was made a value for one animal, and suppression rate of the one animal was calculated by following equation: [formula]

Acute toxicity = settings: mouse, in vivo; po, mortality for seven days, male dd-mice
Experimental: The compounds were orally administrated (po: 300 mg/kg) to male dd-mice weighing 20 to 25 g. LD50 was determined by observing the mortality for seven days after the administration.

[3] = test system: experimental asthma in passively sensitized guinea pigs; assay: Effects on experimental asthma; format: in vivo, guinea pig (Hartley male); settings: 50 mg/kg orally, one hour before aerosol antigen 1.5% EWA; mean + SEM of 5 or 10 animals; control 254 ± 18
Experimental: (c) Effects on experimental asthma Guinea pigs were passively sensitized as follows. Hartley male guinea pigs weighing 350 to 500 g were intraperitoneally injected with 1 ml of rabbit EWA serum prepared by the method of Eda et al. [Folia pharmacol., Japon, 66, 237 (1970)]. The animals were treated with intraperitoneal injection of diphenhydramine (20 mg/kg) and propranolol (5 mg/kg), 30 minutes before administration of test compounds. 17 hours after the sensitization, the test compounds (50 mg/kg) were orally administrated to sensitized animals. After one hour from the administration of the test compounds, the guinea pigs were placed in plastic observation box and were exposed to an aerosal antigen of 1.5% EWA. The time until the onset of respiratory […] symptom [collapse time (second)] was measured as a result of experimental asthma.

## Cn1cnc2c(=O)n(C)c3ccccc3c21 [Compound 4, 1,5-Dimethyl-1H,5H-imidazo[4,5-c]quinolin-4-one]
[1]
  IC50: > 20 µM
[2]
  minimal effective dose: > 10 mg/kg
Acute toxicity
  LD50 at 168 h: > 200 mg/kg

## CCCCn1c(=O)c2nc(S)n(C)c2c2ccccc21 [Compound 31, 5-n-Butyl-1-methyl-2-mercapto-1H,5H-imidazo[4,5-c] quinolin-4-one]
[3]
  Experimental asthma (collapse time): 284 ± 48 s
[1]
  IC50: 9.6 µM
[2]
  minimal effective dose: > 100 mg/kg
Acute toxicity
  LD50 at 168 h: > 300 mg/kg

## CCCCn1c(=O)c2ncn(C)c2c2cc(C)ccc21 [Compound 26, 5-n-Butyl-1,8-dimethyl-1H,5H-imidazo[4,5-c]quinolin-4-one]
[1]
  IC50: 9.8 µM
[2]
  minimal effective dose: 100 mg/kg
Acute toxicity
  LD50 at 168 h: > 300 mg/kg

## Cn1cnc2c(=O)n(CC(=O)O)c3ccccc3c21 [Compound 9, 5-Carboxymethyl-1-methyl-1H,5H-imidazo[4,5-c]quinolin-4-one]
[3]
  Experimental asthma (collapse time): 532 ± 31 s
[1]
  IC50: > 20 µM
[2]
  minimal effective dose: > 100 mg/kg
Acute toxicity
  LD50 at 168 h: > 300 mg/kg

## CCCCn1c(=O)c2nnn(C)c2c2ccccc21 [Compound 32, 5-n-Butyl-1-methyl-1H,5H-triazolo[4,5-c]quinolin-4-one]
[1]
  IC50: 1.6 µM
[2]
  minimal effective dose: > 100 mg/kg
Acute toxicity
  LD50 at 168 h: > 300 mg/kg

## CCCCn1c(=O)c2ncn(C)c2c2ccccc21 [Compound 1, 5-n-Butyl-1-methyl-1H,5H-imidazo[4,5-c]quinolin-4-one]
[3]
  Experimental asthma (collapse time): 517 ± 37 s
[1]
  IC50: 0.0034 µM
[2]
  minimal effective dose: < 10 mg/kg
Acute toxicity
  LD50 at 168 h: > 300 mg/kg

## CCCCn1c(=O)c2ncn(C)c2c2c(C)cccc21.Cl [Compound 27W, 5-n-Butyl-1,9-dimethyl-1H,5H-imidazo[4,5-c]quinolin-4-one hydrochloride]
[1]
  IC50: > 20 µM
[2]
  minimal effective dose: 100 mg/kg
Acute toxicity
  LD50 at 168 h: > 300 mg/kg

## CCCCn1c(=O)c2nc[nH]c2c2ccccc21 [Compound 8, 5-n-Butyl-1H,5H-imidazo[4,5-c]quinolin-4-one]
[1]
  IC50: > 20 µM
[2]
  minimal effective dose: > 100 mg/kg
Acute toxicity
  LD50 at 168 h: > 300 mg/kg

## CCCCn1c(=O)c2ncn(CC)c2c2ccccc21.Cl [Compound 16W, 5-n-Butyl-1-ethyl-1H,5H-imidazo[4,5-c]quinolin-4-one hydrochloride]
[3]
  Experimental asthma (collapse time): 422 ± 43 s
[1]
  IC50: 4.1 µM
[2]
  minimal effective dose: > 100 mg/kg
Acute toxicity
  LD50 at 168 h: > 300 mg/kg

## CCCCn1c(=O)c2ncn(Cc3ccccc3)c2c2ccccc21 [Compound 7, 1-Benzyl-5-n-butyl-1H,5H-imidazo[4,5-c]quinolin-4-one]
[1]
  IC50: > 20 µM
[2]
  minimal effective dose: > 100 mg/kg
Acute toxicity
  LD50 at 168 h: > 300 mg/kg

## CCCn1c(=O)[nH]c(=O)c2[nH]cnc21 [Enprofylline, reference compound]
[1]
  IC50: 10 µM
[2]
  minimal effective dose: ≤ 100 mg/kg

## Cn1cnc2c(=O)n(Cc3ccco3)c3ccccc3c21 [Compound 3, 5-Furfuryl-1-methyl-1H,5H-imidazo[4,5-c]quinolin-4-one]
[1]
  IC50: > 20 µM
[2]
  minimal effective dose: > 100 mg/kg
Acute toxicity
  LD50 at 168 h: > 300 mg/kg

## CCCCn1c(=O)c2ncn(C)c2c2ccc(Cl)cc21.Cl [Compound 24W, 5-n-Butyl-7-chloro-1-methyl-1H,5H-imidazo[4,5-c]quinolin-4-one hydrochloride]
[1]
  IC50: 0.9 µM
[2]
  minimal effective dose: > 100 mg/kg
Acute toxicity
  LD50 at 168 h: > 300 mg/kg

## CCn1c(=O)c2ncn(C)c2c2ccccc21 [Compound 5, 5-Ethyl-1-methyl-1H,5H-imidazo[4,5-c]quinolin-4-one]
[3]
  Experimental asthma (collapse time): 519 ± 78 s
[1]
  IC50: > 20 µM
[2]
  minimal effective dose: < 10 mg/kg
Acute toxicity
  LD50 at 168 h: > 100 mg/kg

## CCCCn1c(=O)c2ncn(C(C)C)c2c2ccccc21.Cl [Compound 18W, 5-n-Butyl-1-isopropyl-1H,5H-imidazo[4,5-c]quinolin-4-one hydrochloride]
[3]
  Experimental asthma (collapse time): 425 ± 50 s
[1]
  IC50: 1.5 µM
[2]
  minimal effective dose: > 100 mg/kg
Acute toxicity
  LD50 at 168 h: > 300 mg/kg

## CC(C)C(=O)c1c(C(C)C)nn2ccccc12 [KC 404, reference compound]
[1]
  IC50: 0.86 µM
[2]
  minimal effective dose: > 100 mg/kg

## CCCn1c(=O)c2ncn(C)c2c2ccccc21 [Compound 6, 1-Methyl-5-n-propyl-1H,5H-imidazo[4,5-c]quinolin-4-one]
[3]
  Experimental asthma (collapse time): 600 ± 0 s
[1]
  IC50: < 20 µM
[2]
  minimal effective dose: < 10 mg/kg
Acute toxicity
  LD50 at 168 h: > 200 mg/kg

## CCCCn1cnc2c(=O)n(CCCC)c3ccccc3c21.Cl [Compound 19W, 1,5-Di-n-butyl-1H,5H-imidazo[4,5-c]quinolin-4-one hydrochloride]
[3]
  Experimental asthma (collapse time): 503 ± 44 s
[1]
  IC50: 6.4 µM
[2]
  minimal effective dose: > 100 mg/kg
Acute toxicity
  LD50 at 168 h: > 300 mg/kg

## CCCCn1c(=O)c2ncn(CCC)c2c2ccccc21.Cl [Compound 17W, 5-n-Butyl-1-n-propyl-1H,5H-imidazo[4,5-c]quinolin-4-one hydrochloride]
[3]
  Experimental asthma (collapse time): 484 ± 31 s
[1]
  IC50: 2.4 µM
[2]
  minimal effective dose: > 100 mg/kg
Acute toxicity
  LD50 at 168 h: > 300 mg/kg

## Cn1c(=O)c2[nH]cnc2n(C)c1=O [Theophylline, reference compound]
[3]
  Experimental asthma (collapse time): 414 ± 47 s
